Source: PubChem BioAssay (NCI)
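A five-concentration, 48-hour dose response in 96-well plates underlies each endpoint, interpolated linearly between surrounding concentrations. Here, GI50 denotes the concentration required for 50% inhibition of growth. The concentration for full growth arrest is given as TGI.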

What was measured:
Assay in all cases: NCI-60 cell line screen, 48 h
RPMI-8226 leukemia = tested on: RPMI-8226 leukemia
SK-MEL-28 melanoma = tested on: SK-MEL-28 melanoma
CCRF-CEM leukemia = tested on: CCRF-CEM leukemia
SF-295 CNS = tested on: SF-295 CNS
DU-145 prostate = tested on: DU-145 prostate
M14 melanoma = tested on: M14 melanoma
OVCAR-4 ovarian = tested on: OVCAR-4 ovarian
OVCAR-3 ovarian = tested on: OVCAR-3 ovarian
HL-60(TB) leukemia = tested on: HL-60(TB) leukemia
EKVX NSCLC = tested on: EKVX NSCLC

SMILES	GI50 (RPMI-8226 leukemia) [µM]	TGI (RPMI-8226 leukemia) [µM]	GI50 (SK-MEL-28 melanoma) [µM]	TGI (SK-MEL-28 melanoma) [µM]	GI50 (CCRF-CEM leukemia) [µM]	TGI (CCRF-CEM leukemia) [µM]	GI50 (SF-295 CNS) [µM]	TGI (SF-295 CNS) [µM]	GI50 (DU-145 prostate) [µM]	TGI (DU-145 prostate) [µM]	GI50 (M14 melanoma) [µM]	TGI (M14 melanoma) [µM]	GI50 (OVCAR-4 ovarian) [µM]	TGI (OVCAR-4 ovarian) [µM]	GI50 (OVCAR-3 ovarian) [µM]	TGI (OVCAR-3 ovarian) [µM]	GI50 (HL-60(TB) leukemia) [µM]	TGI (HL-60(TB) leukemia) [µM]	GI50 (EKVX NSCLC) [µM]	TGI (EKVX NSCLC) [µM]
C=C1CC[C@@H]2[C@](C)(COC(C)=O)[C@H](OC(C)=O)CC[C@@]2(C)[C@@H]1CC(Nc1ccc(S(=O)(=O)Nc2ccc(Cl)nn2)cc1)C1=CCOC1=O (some centres undefined)	0.445	3.04	1.68	3.46	0.465	2.6	3.28	12.6	1.7	3.45	1.45	3.41	1.47	3.17	1.22	2.51	1.32	4.44	4.53	17
Cc1nn(-c2ccc([N+](=O)[O-])cc2)c2ncnc(N/N=C/c3ccccc3O)c12	0.619	> 100	0.443	5.53	0.222	> 100	1.14	10.3	0.382	> 100	0.299	2.2	0.202	4.62	0.262	1.56	0.31	–	2.41	> 100
O=[N+]([O-])c1ccc(N2CCC(CCCC3CCN(c4ccc([N+](=O)[O-])cc4[N+](=O)[O-])CC3)CC2)c([N+](=O)[O-])c1	–	43.3	–	28.9	–	35.9	–	32.3	–	61.3	–	26.7	–	33.4	–	34.5	–	35.9	–	34.3
COC(=O)Nc1nc2ccc(Oc3cccc(NC(=O)Nc4cc(C(F)(F)F)ccc4F)c3)cc2[nH]1	> 20.8	> 25	11.3	> 25	10.1	> 25	14.6	> 25	> 25	> 25	7.67	> 25	17.6	> 25	14	> 25	4.98	18.5	> 19.5	> 25
COc1cc(/C=C/C(=O)c2ccc(F)cc2)ccc1OCCCN1CCN(CC(=O)Nc2ccc(Cl)cc2C(=O)c2ccccc2Cl)CC1	2	5.46	3.68	12.6	2.65	9.3	5.57	19	29.8	> 100	3.4	13.3	9.48	34.5	11.3	27.2	4.23	25.9	31.3	> 100
CCSc1nc(SCC)c2c(-c3ccc(OC)c(OC)c3)c(C#N)c(SCC)nc2n1	8.38	94.4	41.8	> 100	83.7	> 100	12.9	39.9	17.7	47.8	56.2	> 100	31.8	> 100	10.5	32.5	81.1	> 100	17.4	53.3
CN(C)CC1CCC2=C(C1=O)C(c1ccc(Cl)c(Cl)c1)C1=C(CCC(CN(C)C)C1=O)O2 (centres undefined)	0.389	4.36	17.6	34.6	3.33	26.3	16.9	30.5	2.91	9.09	9.35	23.4	15.4	29.9	1.6	5.89	0.773	3.53	18.2	34.1
COC(=N)c1c(N)[n+]([O-])c2ccc(F)cc2[n+]1[O-]	81.2	> 100	> 100	> 100	> 100	> 100	> 100	> 100	> 100	> 100	> 100	> 100	> 100	> 100	> 100	> 100	> 100	> 100	99.1	> 100
N#CSCc1ccc(Cl)c(CSC#N)c1	0.186	28.1	3.58	22.4	0.103	23.6	3.15	> 49.3	0.121	12.7	0.0759	14.8	0.659	19.4	0.165	18.1	0.0468	2.48	20.7	> 80.3
C[C@]12CC[C@@H]3c4ccc(O)cc4CC[C@H]3[C@@H]1Cc1cnc(N)nc12	12.7	31.4	10.7	26.1	15.3	40	15.2	42.7	17.8	47.3	18.2	36.4	32.2	> 100	23	58.7	22.1	> 100	9.47	34.9
COc1ccc(CC(=O)c2ccc(O)cc2O)cc1	34	> 100	> 100	> 100	49.4	> 100	46.2	> 100	> 100	> 100	> 100	> 100	> 100	> 100	61.5	> 100	40.9	> 100	47.7	> 100
O=S(=O)(c1cccc2c(I)cccc12)N1CCCNCC1	14.5	38.5	21.6	44.2	14.1	32.2	16.1	34.1	15.8	36.3	19.8	39.2	18.6	38.4	18.7	43.3	14.2	43.4	19.8	39.7
Cc1[nH]c(=O)nc(Nc2ccc(Cl)cc2)c1C(=O)N1CCN(CCO)CC1	> 100	> 100	> 100	> 100	> 100	> 100	32.1	> 100	> 100	> 100	> 100	> 100	> 100	> 100	> 100	> 100	> 100	> 100	> 100	> 100
CC(=O)[O][Sn]([CH2]c1ccccc1)([CH2]c1ccccc1)[CH2]c1ccccc1	3.65	> 4.64	> 5.6	> 6.79	> 4.58	> 6.27	> 5.52	> 6.84	> 10	> 10	> 8.37	> 10	> 4.36	> 6.02	> 6.14	> 10	> 5.79	> 7.61	> 5.53	> 6.88
O1[As]2O[As]3O[As]1O[As](O2)O3	0.29	2.89	1.02	2.45	0.161	1.11	2.63	9	2.08	7.21	1.46	4.21	1.06	11.9	0.283	0.72	0.344	1.73	1.54	7.12
